The text below walks through data of paper PMC6009898 (Journal of Enzyme Inhibition and Medicinal Chemistry, 2017).

Data set [1] addresses T1, Aβ (1–42) (Homo sapiens, UniProt P05067). Kind of data set: Inhibition of Cu^2+-induced Aβ (1–42) aggregation (ThT assay). The data set is classed as biochemical. Particulars: Aβ 25 μM, compound 50 μM, Cu^2+ 25 μM, 37 °C, 24 h; read-out: Inhibition of Cu^2+-induced Aβ aggregation. The protocol: The mixture of the peptide (10 μL, 25 μM, final concentration) with or without copper (10 μL, 25 μM, final concentration) and the test compound (10 μL, 50 μM, final concentration) were incubated at 37 °C for 24 h. The 20 μL of the sample was diluted to a final volume of 200 μL with […] glycine–NaOH buffer (pH 8.0) containing ThT (5 μM). The detection method was the same as that of self-induced Aβ aggregation experiment.

For data set [2], the target named is T2, BuChE (from equine serum) (Equus caballus, UniProt P81908).
T2 construct: butyrylcholinesterase (BuChE, E.C. 3.1.1.8) from equine serum and human serum; purchased Sigma-Aldrich (St. Louis, MO); host or cells: equine serum
As to the kind of experiment: biochemical. The format is biochemical. Particulars: for IC50: means ± SD of three experiments.

A further data set deals with T3, AChE (from electric eel) (Electrophorus electricus, UniProt O42275).
T3 construct: Acetylcholinesterase (E.C. 3.1.1.7) from electric eel and human erythrocytes; purchased Sigma-Aldrich (St. Louis, MO); host or cells: electric eel (natural source)
Kind of data set: biochemical. Particulars: means ± SD of three experiments; read-out: IC50 eeAChE.

For data set [3], the target named is T1, Aβ (1–42). As to the kind of experiment: Inhibition of Aβ (1–42) self-induced aggregation (Thioflavin T assay). Particulars: read-out: Aβ (1–42) aggregation inhibition (%).
The target of another data set is T4, human AChE (Homo sapiens, UniProt P22303).
T4 construct: Acetylcholinesterase (E.C. 3.1.1.7) from electric eel and human erythrocytes; purchased Sigma-Aldrich (St. Louis, MO); host or cells: human erythrocytes
As to the kind of experiment: biochemical. Particulars: means ± SD of three experiments; read-out: IC50 hAChE.

The next data set is described as follows: in vitro. The arrangement: Papp at 16 h: dose or concentration left out as unconfirmed. Particulars: PAMPA. As for the experimental part: Commercial drugs were purchased from Sigma (St. Louis, MO) and Alfa Aesar (Haverhill, MA). The porcine brain lipid (PBL) was obtained from Avanti Polar Lipids (Alabaster, AL). The donor microplate (PVDF membrane, pore size […]) and the acceptor microplate were both from Millipore (Darmstadt, Germany). The 96-well UV plate (COSTAR^@) was from Corning Incorporated (Harrodsburg, KY). The acceptor 96-well microplate was filled with 300 μL of PBS/EtOH (7:3), and the filter membrane was impregnated with 4 μL of PBL in dodecane (20 mg/mL). […] The […] was carefully placed on the donor plate to form a sandwich, which was left undisturbed for 16 h at 25 °C. After incubation, the donor plate was carefully removed and the concentration of compound in the acceptor wells was determined using an UV plate reader (Flexstation^@ 3). Every sample was analyzed at five wavelengths, in four wells, in at least three independent runs, and the results are given as the mean ± SD. In each experiment, nine quality control standards of known BBB permeability were included to validate the analysis set.

The subject of another data set is AChE. Particulars: cited from earlier work.

Read-outs that look alike come from different tables or passages of the source. Where only a bound is given, the exact number is not on record here.

T4 sequence (P22303 other isoform, or with tags, fused parts or gaps): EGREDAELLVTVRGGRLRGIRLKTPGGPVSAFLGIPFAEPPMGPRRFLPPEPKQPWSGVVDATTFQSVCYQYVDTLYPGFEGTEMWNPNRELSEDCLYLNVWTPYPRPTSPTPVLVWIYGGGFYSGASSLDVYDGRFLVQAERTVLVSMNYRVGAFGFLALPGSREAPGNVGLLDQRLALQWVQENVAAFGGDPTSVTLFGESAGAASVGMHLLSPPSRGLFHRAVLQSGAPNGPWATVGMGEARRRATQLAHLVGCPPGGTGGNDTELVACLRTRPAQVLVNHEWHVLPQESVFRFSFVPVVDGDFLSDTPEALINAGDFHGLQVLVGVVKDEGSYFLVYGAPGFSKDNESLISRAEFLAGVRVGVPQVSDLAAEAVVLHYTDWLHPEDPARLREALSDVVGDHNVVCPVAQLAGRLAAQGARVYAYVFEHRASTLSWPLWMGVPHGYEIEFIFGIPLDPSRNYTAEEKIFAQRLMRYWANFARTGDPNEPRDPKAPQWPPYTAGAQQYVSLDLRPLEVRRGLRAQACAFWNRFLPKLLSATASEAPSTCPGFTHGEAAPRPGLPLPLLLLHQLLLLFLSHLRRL
T1 sequence (P05067 672-713): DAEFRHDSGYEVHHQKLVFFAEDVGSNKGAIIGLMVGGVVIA
T3 sequence (O42275 24-633): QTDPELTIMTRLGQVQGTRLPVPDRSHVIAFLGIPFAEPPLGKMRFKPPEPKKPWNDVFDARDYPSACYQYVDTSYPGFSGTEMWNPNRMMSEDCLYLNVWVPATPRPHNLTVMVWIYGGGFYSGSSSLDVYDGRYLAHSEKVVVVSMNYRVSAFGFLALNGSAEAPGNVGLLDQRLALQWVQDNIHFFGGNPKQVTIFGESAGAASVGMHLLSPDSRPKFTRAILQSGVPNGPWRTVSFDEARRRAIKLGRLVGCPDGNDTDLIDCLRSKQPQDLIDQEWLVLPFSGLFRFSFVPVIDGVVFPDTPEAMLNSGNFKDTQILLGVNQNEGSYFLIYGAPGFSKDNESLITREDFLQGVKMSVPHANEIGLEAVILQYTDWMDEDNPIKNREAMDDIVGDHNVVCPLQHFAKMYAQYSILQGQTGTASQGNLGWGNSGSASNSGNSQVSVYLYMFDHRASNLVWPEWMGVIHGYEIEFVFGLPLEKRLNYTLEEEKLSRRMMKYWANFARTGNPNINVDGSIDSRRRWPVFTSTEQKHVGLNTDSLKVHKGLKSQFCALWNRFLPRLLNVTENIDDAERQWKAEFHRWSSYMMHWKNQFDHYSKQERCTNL
T2 sequence (P81908 whole entry): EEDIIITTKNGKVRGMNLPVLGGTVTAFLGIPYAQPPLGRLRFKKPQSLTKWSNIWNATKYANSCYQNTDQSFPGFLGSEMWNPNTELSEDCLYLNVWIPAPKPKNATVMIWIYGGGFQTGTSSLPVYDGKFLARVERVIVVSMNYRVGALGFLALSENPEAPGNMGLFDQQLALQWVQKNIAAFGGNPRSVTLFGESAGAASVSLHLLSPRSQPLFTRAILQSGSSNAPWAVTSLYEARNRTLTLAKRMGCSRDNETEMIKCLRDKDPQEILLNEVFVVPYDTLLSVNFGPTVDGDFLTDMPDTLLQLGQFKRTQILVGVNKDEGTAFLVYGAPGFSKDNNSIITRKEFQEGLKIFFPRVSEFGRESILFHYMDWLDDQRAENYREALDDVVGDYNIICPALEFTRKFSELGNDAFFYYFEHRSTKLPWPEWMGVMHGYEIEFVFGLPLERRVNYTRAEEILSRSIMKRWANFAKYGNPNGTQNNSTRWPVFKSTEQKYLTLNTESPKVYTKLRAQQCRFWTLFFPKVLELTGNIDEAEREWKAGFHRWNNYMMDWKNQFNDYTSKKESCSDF

Regarding `Oc1c(I)cc(Cl)c2cccnc12` [CQ, Clioquinol, reference compound], the inhibition at 50 µM on Aβ (1–42) [1] came to 60.2%.

On to `O=C(O)/C=C/c1ccccc1` [Cinnamic acid, reference compound], for which, in data set [2] (read-out: IC50 eqBuChE), the IC50 is more than 100000 nM.

For `O=C(C=Cc1ccccc1)Nc1cc[n+](Cc2ccccc2)cc1.[Br-]` [Compound 5a, 1-Benzyl-4-cinnamamidopyridin-1-ium bromide], the “ABTS assay (trolox equiv)” value was “N^c (N means <0.05)”. Also, at AChE (from electric eel), the IC50 worked out at 54.1 ± 8.2 nM. In data set [2] (IC50 eqBuChE), this compound had an IC50 of 6300 ± 600 nM. For the same compound, the inhibition at 20 µM on Aβ (1–42) [3] was found to be 46.3 ± 1.6%.

Regarding `Cc1cccc(C[n+]2ccc(NC(=O)C=Cc3ccccc3)cc2)c1.[Br-]` [Compound 5b, 4-Cinnamamido-1-(3-methylbenzyl) pyridin-1-ium bromide], the “ABTS assay (trolox equiv)” value is listed as “N (N means <0.05)”. Further, the IC50 at AChE (from electric eel) was found to be 103 ± 9.6 nM. Also, the IC50 in data set [2] (IC50 eqBuChE) came out at 8100 ± 1300 nM. The inhibition at 20 µM at Aβ (1–42) [3] worked out at 48.5 ± 1.8%.

For the compound `Cc1ccc(C[n+]2ccc(NC(=O)C=Cc3ccccc3)cc2)cc1.[Br-]` [Compound 5c, 4-Cinnamamido-1-(4-methylbenzyl) pyridin-1-ium bromide], the “ABTS assay (trolox equiv)” value is “N (N means <0.05)”. The IC50 on AChE (from electric eel) worked out at 1263.8 ± 1.2 nM. The IC50 in data set [2] (IC50 eqBuChE) came out at 25000 ± 700 nM. Also, the inhibition at 20 µM on Aβ (1–42) [3] is 55.1 ± 1.5%.

As for `O=C(C=Cc1ccccc1)Nc1cc[n+](Cc2cccc(F)c2)cc1.[Br-]` [Compound 5d, 4-Cinnamamido-1-(3-fluorobenzyl) pyridin-1-ium bromide], the “ABTS assay (trolox equiv)” value is given as “N (N means <0.05)”. In addition, the IC50 at AChE (from electric eel) is 93.5 ± 7.7 nM. Moreover, the IC50 in data set [2] (IC50 eqBuChE) was found to be 7400 ± 500 nM. For the same compound, on Aβ (1–42) [3], the inhibition at 20 µM stood at 53.6 ± 2.3%.

As for `O=C(C=Cc1ccccc1)Nc1cc[n+](Cc2ccc(F)cc2)cc1.[Br-]` [Compound 5e, 4-Cinnamamido-1-(4-fluorobenzyl) pyridin-1-ium bromide], the “ABTS assay (trolox equiv)” value is on record as “N (N means <0.05)”. The IC50 on AChE (from electric eel) worked out at 90.8 ± 9.2 nM. For the same compound, the IC50 in data set [2] (IC50 eqBuChE) came to 10000 ± 400 nM. In addition, at Aβ (1–42) [3], the inhibition at 20 µM was 52.8 ± 1.8%.

Take `O=C(C=Cc1ccccc1)Nc1cc[n+](Cc2cccc(Br)c2)cc1.[Br-]` [Compound 5f, 1-(3-Bromobenzyl)-4-cinnamamidopyridin-1-ium bromide]: the “ABTS assay (trolox equiv)” value was “N (N means <0.05)”. For the same compound, the IC50 at AChE (from electric eel) worked out at 154 ± 2.6 nM. Besides, in data set [2] (IC50 eqBuChE), the IC50 worked out at 2500 ± 300 nM. On Aβ (1–42) [3], the inhibition at 20 µM turned out to be 48.8 ± 2.1%.

As for `O=C(C=Cc1ccccc1)Nc1cc[n+](Cc2ccc(Br)cc2)cc1.[Br-]` [Compound 5g, 1-(4-Bromobenzyl)-4-cinnamamidopyridin-1-ium bromide], the “ABTS assay (trolox equiv)” value is reported as “N (N means <0.05)”. For the same compound, on AChE (from electric eel), the IC50 was determined as 1451 ± 4.3 nM. The same compound had an IC50 in data set [2] (IC50 eqBuChE) of 2100 ± 800 nM. On Aβ (1–42) [3], the inhibition at 20 µM came to 57.2 ± 1.1%.

With `COc1ccc(/C=C/C(=O)Nc2cc[n+](Cc3ccccc3)cc2)cc1OC.[Br-]` [Compound 5h, (E)-1-benzyl-4-(3-(3,4-dimethoxyphenyl)acrylamido) pyridin-1-ium bromide], the “ABTS assay (trolox equiv)” value is reported as “N (N means <0.05)”. In addition, at AChE (from electric eel), the IC50 is 135 ± 4.8 nM. Besides, the midpoint of inhibition in data set [2] (IC50 eqBuChE), the IC50, lay at 4500 ± 700 nM. The inhibition at 20 µM at Aβ (1–42) [3] came to 55.7 ± 3.2%.

Consider `COc1ccc(/C=C/C(=O)Nc2cc[n+](Cc3cccc(C)c3)cc2)cc1OC.[Br-]` [Compound 5i, (E)-4-(3-(3,4-dimethoxyphenyl)acrylamido)-1-(3-methylbenzyl) pyridin-1-ium bromide], for which the “ABTS assay (trolox equiv)” value is given as “N (N means <0.05)”. For the same compound, the IC50 at human AChE came to 43.7 ± 0.5 nM. Besides, in data set [2] (IC50 eqBuChE), the IC50 was determined as 2700 ± 800 nM. In addition, the inhibition at 20 µM on Aβ (1–42) [3] turned out to be 53.9 ± 0.9%.

Consider `COc1ccc(/C=C/C(=O)Nc2cc[n+](Cc3ccc(C)cc3)cc2)cc1OC.[Br-]` [Compound 5j, (E)-4-(3-(3,4-dimethoxyphenyl)acrylamido)-1-(4-methylbenzyl) pyridin-1-ium bromide], for which the “ABTS assay (trolox equiv)” value is “N (N means <0.05)”. Also, the IC50 on human AChE stood at 96.5 ± 2.8 nM. For the same compound, the IC50 at AChE (from electric eel) was 90.7 ± 3.2 nM. In addition, the IC50 in data set [2] (IC50 eqBuChE) is 3800 ± 900 nM. On Aβ (1–42) [3], the inhibition at 20 µM is 63.4 ± 2.8%.

As to `COc1ccc(/C=C/C(=O)Nc2cc[n+](Cc3cccc(F)c3)cc2)cc1OC.[Br-]` [Compound 5k, (E)-4-(3-(3,4-dimethoxyphenyl)acrylamido)-1-(3-fluorobenzyl) pyridin-1-ium bromide], the “ABTS assay (trolox equiv)” value is “N (N means <0.05)”. Besides, at human AChE, the IC50 was 19.2 ± 1.6 nM. At AChE (from electric eel), the half-inhibitory concentration (IC50) is 20.6 ± 1 nM. For the same compound, the half-inhibitory concentration (IC50) in data set [2] (IC50 eqBuChE) turned out to be 3100 ± 500 nM. For the same compound, the inhibition at 20 µM on Aβ (1–42) [3] turned out to be 65.6 ± 2.3%.

On to `COc1ccc(/C=C/C(=O)Nc2cc[n+](Cc3cccc(Br)c3)cc2)cc1OC.[Br-]` [Compound 5m, (E)-1-(3-bromobenzyl)-4-(3-(3,4-dimethoxyphenyl)acrylamido) pyridin-1-ium bromide], for which the “ABTS assay (trolox equiv)” value was “N (N means <0.05)”. The IC50 on human AChE came out at 79.4 ± 1.5 nM. Further, the IC50 at AChE (from electric eel) was 92.6 ± 9 nM. It took 2500 ± 600 nM to reach half-maximal inhibition in data set [2] (IC50 eqBuChE) (IC50). For the same compound, at Aβ (1–42) [3], the inhibition at 20 µM is 62.8 ± 1.4%.

`COc1ccc(/C=C/C(=O)Nc2cc[n+](Cc3ccc(Br)cc3)cc2)cc1OC.[Br-]` [Compound 5n, (E)-1-(4-bromobenzyl)-4-(3-(3,4-dimethoxyphenyl)acrylamido) pyridin-1-ium bromide]: the “ABTS assay (trolox equiv)” value is “N (N means <0.05)”. Further, on human AChE, the IC50 was determined as 51.1 ± 4.8 nM. At AChE (from electric eel), the IC50 is 50.3 ± 8.3 nM. In data set [2] (IC50 eqBuChE), this compound displayed an IC50 of 1900 ± 500 nM. The “Times more potent against BuChE than donepezil” value in data set [2] (eqBuChE IC50 compared with donepezil) turned out to be 2.3 times. Also, the inhibition at 20 µM on Aβ (1–42) [3] was found to be 66.3 ± 2.9%.

As to `COc1cc(/C=C/C(=O)CC(=O)/C=C/c2ccc(O)c(OC)c2)ccc1O` [Curcumin, reference compound], the inhibition at 20 µM at Aβ (1–42) [3] came out at 54.6 ± 2.6%.

As for `CC(=O)[C@H]1CC[C@H]2[C@@H]3CCC4=CC(=O)CC[C@]4(C)[C@H]3CC[C@]12C` [Progesterone, reference compound], the Papp at 16 h in the data set “in vitro” stood at 5.34 ×10⁻⁶ cm/s.

As for `[Br-].c1ccc(C[n+]2ccccc2)cc1` [benzyl pyridinium bromide], in the data set on AChE, the AChE inhibition result is “micromolar range”.
